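Assay format: 96-well plates, 48-hour exposure. At the TGI there is no net growth.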
Key:
Test in all cases: growth of human tumour cells (NCI), 48 h
HOP-92 NSCLC = tested on: HOP-92 NSCLC
HT29 colon = tested on: HT29 colon
KM12 colon = tested on: KM12 colon
M14 melanoma = tested on: M14 melanoma
MALME-3M melanoma = tested on: MALME-3M melanoma
MCF7 breast = tested on: MCF7 breast
MDA-MB-231 breast = tested on: MDA-MB-231 breast
MOLT-4 leukemia = tested on: MOLT-4 leukemia
NCI/ADR-RES ovarian = tested on: NCI/ADR-RES ovarian
OVCAR-4 ovarian = tested on: OVCAR-4 ovarian
OVCAR-5 ovarian = tested on: OVCAR-5 ovarian
PC-3 prostate = tested on: PC-3 prostate
SF-268 CNS = tested on: SF-268 CNS
SF-295 CNS = tested on: SF-295 CNS
SK-MEL-5 melanoma = tested on: SK-MEL-5 melanoma
SN12C renal = tested on: SN12C renal
SNB-75 CNS = tested on: SNB-75 CNS
SW-620 colon = tested on: SW-620 colon
U251 CNS = tested on: U251 CNS
UACC-62 melanoma = tested on: UACC-62 melanoma

Compound | TGI (HOP-92 NSCLC) [µM] | TGI (HT29 colon) [µM] | TGI (KM12 colon) [µM] | TGI (M14 melanoma) [µM] | TGI (MALME-3M melanoma) [µM] | TGI (MCF7 breast) [µM] | TGI (MDA-MB-231 breast) [µM] | TGI (MOLT-4 leukemia) [µM] | TGI (NCI/ADR-RES ovarian) [µM] | TGI (OVCAR-4 ovarian) [µM] | TGI (OVCAR-5 ovarian) [µM] | TGI (PC-3 prostate) [µM] | TGI (SF-268 CNS) [µM] | TGI (SF-295 CNS) [µM] | TGI (SK-MEL-5 melanoma) [µM] | TGI (SN12C renal) [µM] | TGI (SNB-75 CNS) [µM] | TGI (SW-620 colon) [µM] | TGI (U251 CNS) [µM] | TGI (UACC-62 melanoma) [µM]
CCOC(=O)C1=CN/C(=C(/C)C(=O)OC)SC1C(=O)OCC (stereo not given) | > 100 | > 100 | > 100 | > 100 | > 100 | > 100 | > 100 | > 100 | > 100 | > 100 | > 100 | > 100 | > 100 | > 100 | > 100 | > 100 | > 100 | > 100 | > 100 | > 100
CCOC(=O)NNC(=O)C1CSC(c2ccccc2)N1C(C)=O (stereo not given) | > 100 | > 100 | > 100 | > 100 | > 100 | > 100 | > 100 | > 100 | > 100 | > 100 | > 100 | > 100 | > 100 | > 100 | > 100 | > 100 | > 100 | > 100 | > 100 | > 100
CC1(C)CN=C(c2ccc3c(c2)Cc2cc(C4=NCC(C)(C)N4)ccc2-3)N1 | > 100 | > 100 | > 100 | > 100 | 61.2 | 86.5 | > 100 | > 100 | > 100 | > 100 | > 100 | > 100 | > 100 | > 100 | > 100 | > 100 | > 100 | > 100 | 64.8 | 69.5
O=C(c1cc(Cl)cc(Cl)c1)N(C(=O)N1CCN(c2ccccc2)CC1)c1ccccc1 | > 100 | > 100 | > 100 | > 100 | > 100 | > 100 | > 100 | > 100 | > 100 | > 100 | > 100 | > 100 | > 100 | > 100 | 75.7 | > 100 | > 100 | > 100 | > 100 | > 100
C=C1C(=O)OC2/C=C(\CO)C3OC3C3OC3(C)CC(OC(=O)/C(=C/C)CO)C12 (stereo not given) | > 100 | > 100 | > 100 | > 100 | 68.6 | > 100 | > 100 | 84.3 | > 100 | > 100 | > 100 | > 100 | > 100 | > 100 | > 100 | > 100 | > 100 | > 100 | > 100 | > 100
N#CC(C#N)N=Cc1ccncc1 | > 100 | > 100 | > 100 | > 100 | > 100 | > 100 | > 100 | > 100 | > 100 | > 100 | > 100 | > 100 | > 100 | > 100 | > 100 | > 100 | > 100 | > 100 | > 100 | > 100
O=C1CC(CC(O)[C@@H]2CCCC[C@@H]2O)CC(=O)N1c1ccccc1 (stereo not given in full) | > 100 | > 100 | > 100 | > 100 | > 100 | > 100 | > 100 | > 100 | > 100 | > 100 | > 100 | > 100 | > 100 | > 100 | > 100 | > 100 | > 100 | > 100 | > 100 | > 100
CNc1c2cccc(C)c2nc2c(C(=O)NCCN(C)C)cccc12 | 0.522 | 0.138 | 1.67 | 0.887 | 0.692 | 0.96 | 0.274 | 0.306 | 1.83 | 0.114 | 1.1 | 0.88 | 0.318 | 0.952 | 0.593 | 0.719 | 0.592 | 0.424 | 0.651 | 0.402

— PubChem BioAssay (NCI)
